Assay results reported in patent US20100029598A1, “Extended Benzamide Derivatives as Modulators of the EP2 Receptor” (Bayer Schering Pharma AG, priority 2008, published 2010).
pIC50: −log10 of the molar value.

Legend:
[1] = molecular target: T1, human Prostaglandin E2 (Subtype EP2) receptor (Homo sapiens, UniProt P43116); assay: cAMP antagonism assay (HTRF cAMP detection, in presence of PGE2); format: cell-based; settings: cAMP antagonism test
T1 construct: host or cells: cells in a cell culture plate
T1 sequence (P43116 whole entry): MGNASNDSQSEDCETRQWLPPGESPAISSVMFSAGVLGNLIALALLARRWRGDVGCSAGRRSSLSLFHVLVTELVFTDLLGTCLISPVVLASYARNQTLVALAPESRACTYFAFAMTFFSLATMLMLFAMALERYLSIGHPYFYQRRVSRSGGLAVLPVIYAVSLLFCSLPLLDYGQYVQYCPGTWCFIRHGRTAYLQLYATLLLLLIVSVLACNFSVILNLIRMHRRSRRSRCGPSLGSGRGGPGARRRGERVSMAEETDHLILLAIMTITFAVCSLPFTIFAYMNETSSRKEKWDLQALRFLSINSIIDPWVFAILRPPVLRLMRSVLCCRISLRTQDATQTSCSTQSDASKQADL
Source text: 1. Detection of the Antagonism of the Human Prostaglandin E2 (Subtype EP2) Receptor Signal
1.1 Principle of Detection
(§1) The binding of PGE2 to the EP2 subtype of the human PGE2 receptor induces activation of membrane-associated adenylate cyclases and leads to the formation of cAMP. In the presence of the phosphodiesterase inhibitor IBMX, cAMP which has accumulated due to this stimulation and been released by cell lysis is employed in a competitive detection method. In this assay, the cAMP in the lysate competes with cAMP-XL665 for binding of an Eu cryptate-labelled anti-cAMP antibody.
(§2) The two lo signals are measured in a suitable measuring instrument with a time lag, i.e. after the background fluorescence has declined.
1.2.1 Antagonism assay (data for each well of a 384-well plate):
The substance solutions (0.75 μl) introduced into an assay plate and 30% DMSO were dissolved in 16 μl of a KRSB+IBMX stimulation solution (1×Krebs-Ringer Bicarbonate Buffer; Sigma-Aldrich # K-4002; including 750 μM 3-isobutyl-1-methylxanthine Sigma-Aldrich # I-7018), and then 15 μl thereof were transferred into a media-free cell culture plate which had been washed with KRSB shortly beforehand.
After preincubation at room temperature (RT) for 30 minutes, 5 μl of a 4×PGE2 solution (11 nM) were added, and incubation was carried out in the presence of the agonist at RT for a further 60 min (volume: ˜20 μl) before the reaction was then stopped by adding 5 μl of lysis buffer and incubated at RT for a further 20 min (volume: ˜25 μl). The cell lysate was then transferred into a measuring plate and measured in accordance with the manufacturer's information (cyclic AMP kit Cisbio International #62AMPPEC).

[2] = system: cumulus-oocyte complexes (cumulus expansion); assay: Cumulus expansion assay in vitro; format: cell-based, mice; settings: competing with PGE2
Method: 2.2 Cumulus Expansion Assay In Vitro
Folliculogenesis was induced in immature female mice (strain : CD1 (ICR) from Charles River) at an age of 14-18 days by a single dose (intraperitoneal) of 10 I.U. of PMSG (Pregnant Mare Serum Gonadotropin; Sigma G-4877, Lot 68H0909). 47-50 hours after the injection, the ovaries were removed and the cumulus-oocyte complexes were removed. The cumulus complex is not yet expanded at this stage.
The cumulus-oocyte complexes were then incubated with prostaglandin E2 (PGE2) (0.3 μM), vehicle control (ethanol) or test substances for 20-24 hours.
Medium: alpha-MEM medium with 0.1 mM IBMX, pyruvates (0.23 mM) glutamines (2 mM), pen/strep 100 IU/ml pen. and 100 μg/ml strep. and HSA (8 mg/ml). Cumulus expansion was then established through the division into four stages (according to Vanderhyden et al. Dev Biol. August 1990;140(2):307-317).

[3] = molecular target: T1, human Prostaglandin E2 (Subtype EP2) receptor; assay: cAMP agonism assay (cellular agonism test); format: cell-based
Source text: as §1, §2
1.2.2 Agonism Assay (Data for each Well of a 384-Well Plate): […]
After incubation at room temperature (RT; volume: ˜15 μl) for 60 minutes, the reaction was then stopped by adding 5 μl of lysis buffer and incubated at RT for a further 20 min (volume: ˜20 μl). The cell lysate was then transferred into a measuring plate and measured in accordance with the manufacturer's instructions (cyclic AMP kit Cisbio International #62AMPPEC).

pIC50 [1]	Structure (SMILES)	other results
6.17	O=C(NCCc1c(C(F)(F)F)[nH]c2c(Cl)cccc12)c1cc2cc(Cl)ccc2[nH]1 [Example 30, N-[2-(7-chloro-2-trifluoromethyl-1H-indol-3-yl)ethyl]-5-chloro-1H-indole-2-carboxamide]	
6.92	Cc1[nH]c2c(Cl)ccc(F)c2c1CCNC(=O)c1cc2cc(F)ccc2[nH]1 [Example 8, N-[2-(7-chloro-4-fluoro-2-methyl-1H-indol-3-yl)ethyl]-5-fluoro-1H-indole-2-carboxamide]	suppression of cumulus expansion ([2]; concentration 5 μM): approx. 60%
	CC(C)Oc1ccc2c(=O)c3cc(C(=O)O)ccc3oc2c1 [AH 6809, reference compound]	suppression of cumulus expansion ([2]; concentration of 100-200 μM): approx. 30%
6.14	COc1ccc(C(=O)NCCc2c(C)[nH]c3c(Cl)ccc(C)c23)cc1OC [Example 17, N-[2-(7-chloro-2,4-dimethyl-1H-indol-3-yl)ethyl]-3,4-di-methoxybenzamide]	
6.49	COc1ccc(C(=O)NCCc2c(C)[nH]c3c(Cl)cccc23)cc1OC [Example 1, N-[2-(7-chloro-2-methyl-1H-indol-3-yl)ethyl]-3,4-dimethoxy-benzamide]	
7.33	Cc1[nH]c2c(Cl)cccc2c1CCNC(=O)c1cc2cc(F)ccc2[nH]1 [Example 7, N-[2-(7-chloro-2-methyl-1H-indol-3-yl)ethyl]-5-fluoro-1H-indole-2-carboxamide]	effect in the cellular agonism test [3]: no inhibition
5.72	COc1ccc(C(=O)NCCc2c(C)[nH]c3c(Cl)ccc(Cl)c23)cc1OC [Example 5, N-[2-(4,7-dichloro-2-methyl-1H-indol-3-yl)ethyl]-3,4-dimethoxybenzamide]	
